According to patent US20250297036A1, “METHOD FOR CO[…]-DERIVED PEPTIDE-NUCLEIC ACID HYBRID MOLECULES ON BASIS OF IN VITRO SELECTION” (priority 2022, published 2025):

Columns and labels:
pseudotype SARS-CoV-2 = type: cell-based
SARS-CoV-2 RBD = SARS-CoV-2 RBD (Severe acute respiratory syndrome coronavirus 2, UniProt P0DTC2)
[1] = target: SARS-CoV-2 spike protein on GFP-reporting pseudotype SARS-CoV-2 (SARS-CoV-2), P0DTC2; assay: cell-based or functional assay
[2] = target: SARS-CoV-2 RBD, wild type (SARS-CoV-2), P0DTC2

| Molecule | infection rate with pseudotype SARS-CoV-2 (percentage of infected cells) (pseudotype SARS-CoV-2) | competition with P05DHu and AM122 antibodies (SARS-CoV-2 RBD) | infection rate with pseudotype SARS-CoV-2 (GFP-expressing hACE2-293T cells) [1] | % inhibition of RBD-hACE2 interaction [2] |
| --- | --- | --- | --- | --- |
| LGKGDFR [LGKGDFR peptide] | 12.6% |  |  |  |
| R7-02 (GGAAGAGATGGCGACACGCAATCGTGGGTTGGGGATATAATGGTAAGCTGATCCTGATGG; 5' hexynyl group, further chemistry not given here) | 1.9% | insignificant |  |  |
| LGKGDFRK (modifications not checked) [LGKGDFR peptide (hACE2-derived hotspot peptide, not conjugated to DNA)] |  |  | 12.6% | 11.7% |
